What all share (format): cell-based
Test [1] has as its target T1, Peroxisome proliferator-activated receptor gamma (Homo sapiens) (UniProt P37231).
T1 sequence (whole entry): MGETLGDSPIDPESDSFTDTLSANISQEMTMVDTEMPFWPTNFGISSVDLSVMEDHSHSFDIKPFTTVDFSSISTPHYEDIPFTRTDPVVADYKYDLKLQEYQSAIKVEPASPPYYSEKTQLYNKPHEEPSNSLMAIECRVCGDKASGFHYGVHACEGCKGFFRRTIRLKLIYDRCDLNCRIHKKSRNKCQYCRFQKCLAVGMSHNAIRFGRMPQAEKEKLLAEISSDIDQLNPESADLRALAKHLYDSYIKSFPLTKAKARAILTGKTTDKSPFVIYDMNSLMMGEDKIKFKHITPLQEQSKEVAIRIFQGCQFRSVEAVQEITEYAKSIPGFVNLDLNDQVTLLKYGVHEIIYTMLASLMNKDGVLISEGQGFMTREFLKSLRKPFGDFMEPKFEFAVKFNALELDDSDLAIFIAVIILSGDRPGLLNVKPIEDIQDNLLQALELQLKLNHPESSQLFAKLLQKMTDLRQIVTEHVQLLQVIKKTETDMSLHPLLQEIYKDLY
Kind of test: Agonist activity at GAL4-fused human PPARgamma expressed in COS7 cells incubated for 24 hrs by luciferase reporter gene assay. For orientation: A reporter such as luciferase makes a cellular process visible.

The target of test [2] is T2, Peroxisome proliferator-activated receptor alpha (Homo sapiens) (UniProt Q07869).
T2 sequence (whole entry): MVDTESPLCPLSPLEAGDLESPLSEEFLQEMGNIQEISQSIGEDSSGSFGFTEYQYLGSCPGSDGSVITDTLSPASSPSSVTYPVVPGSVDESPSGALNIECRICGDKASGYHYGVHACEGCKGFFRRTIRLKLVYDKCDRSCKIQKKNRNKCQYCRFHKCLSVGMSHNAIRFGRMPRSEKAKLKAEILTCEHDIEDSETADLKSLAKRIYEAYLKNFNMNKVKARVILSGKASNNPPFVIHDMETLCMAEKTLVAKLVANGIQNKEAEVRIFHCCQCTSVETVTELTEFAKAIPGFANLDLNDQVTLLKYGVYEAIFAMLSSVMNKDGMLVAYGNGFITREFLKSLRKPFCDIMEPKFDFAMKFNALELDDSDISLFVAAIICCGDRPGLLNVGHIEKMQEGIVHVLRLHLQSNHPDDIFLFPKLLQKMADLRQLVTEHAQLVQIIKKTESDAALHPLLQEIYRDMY
Briefly: Agonist activity at GAL4-fused human PPARalpha expressed in COS7 cells incubated for 24 hrs by luciferase reporter gene assay.

Test [3] addresses T1, Peroxisome proliferator-activated receptor gamma (Homo sapiens). Kind of test: Transactivation of GAL4-fused human PPARgamma expressed in COS7 cells assessed as efficacy at 10 uM incubated for 24 hrs by luciferase reporter gene assay relative to rosiglitazone.
Test [4] deals with T2, Peroxisome proliferator-activated receptor alpha (Homo sapiens). Kind of test: Transactivation of GAL4-fused human PPARalpha expressed in COS7 cells assessed as efficacy at 10 uM incubated for 24 hrs by luciferase reporter gene assay relative to WY-14643.

Activity calls are given as the source filed them. The calls are words filed in the database; no cut-off is given here.

On to `CC(C)=CCCC1(C)CC(O)c2cc(O)ccc2O1` (centres undefined), for which the outcome in test [1] and in test [2] was inactive.
For the compound `CCCCCC1(C)CC(=O)c2c(ccc(O)c2Cl)O1` (centres undefined), the Efficacy in test [3] was 30%. For the same compound, the result in test [1] was Active. The Efficacy result in test [4] was “inactive”.
As to `Cc1cccc(Nc2cc(Cl)nc(SCC(=O)O)n2)c1C`, the Efficacy entry in test [3] is “inactive”.
`CC1(CCC(=O)O)CCc2cc(O)ccc2O1` (centres undefined): the Efficacy entry in test [3] is “inactive”. Besides, the outcome in test [2] was Active. In test [4], the Efficacy amounted to 21%.
The matching figures for `COC(=O)CCC1(C)CCc2cc(O)ccc2O1` (centres undefined): “inactive”, “Active” and 33%.
On the same counts, the results for `CCOC(=O)CCC1(C)CC(=O)c2cc(O)ccc2O1` (centres undefined) are “inactive”, “Active” and 16%.
On to `CCCCCC1(C)CC(O)c2cc(O)ccc2O1` (centres undefined), for which the result in test [1] and in test [2] was inactive.
For the compound `CC(O)CCC1(C)CC(=O)c2cc(O)ccc2O1` (centres undefined), the Efficacy entry in test [3] was “inactive”. Moreover, the result in test [2] was Active. Moreover, the Efficacy in test [4] is 23%.
On the same counts, the results for `CC(C)(O)CCC1(C)CC(=O)c2cc(O)ccc2O1` (centres undefined) are “inactive”, “Active” and 23%.
The matching figures for `CC(=O)Oc1ccc2c(c1)C(=O)CC(C)(CCC(C)OC(C)=O)O2` (centres undefined): “inactive”, “Active” and 40%.
On the same counts, the results for `C=C(C)CCC1(C)CCc2cc(O)ccc2O1` (centres undefined) are “inactive”, “Active” and 35%.

The values are drawn from ChEMBL document CHEMBL4406903, “Synthesis of benzopyran derivatives as PPARα and/or PPARγ activators” (Bioorg Med Chem, 2019).
